Read-outs that look alike come from different tables or passages of the source.
Experiments:
[1] = tested on: HLA-A2.1-having EBV transformed B-cells (221A2.1); details: for Cytotoxic Activity (%) E/T Ratio 10 / Cytotoxic Activity (%) E/T Ratio 30 / Cytotoxic Activity (%) E/T Ratio 3 / Cytotoxic Activity (%) E/T Ratio 1: FluMPA2.1
[2] = tested on: anti-influenza virus memory CTLs (FluMPA2.1); assay type: cell-based, human
[3] = tested on: HLA-A2.1-having EBV transformed B-cells (221A2.1); details: for Cytotoxic Activity (%) E/T Ratio 2.5 / Cytotoxic Activity (%) E/T Ratio 5 / Cytotoxic Activity (%) E/T Ratio 10 / Cytotoxic Activity (%) E/T Ratio 1 / Cytotoxic Activity (%) E/T Ratio 3: FluMPA2.1
[4] = Example 2-4, sample 10 μg/ml during CTL induction +, during expansion +, peptide addition +
[5] = Example 2-4, sample 10 μg/ml during CTL induction +, during expansion +, peptide addition −
[6] = Example 2-6, sample during CTL induction −, during expansion + (10 μg/ml), peptide addition +
[7] = Example 2-6, sample during CTL induction −, during expansion + (10 μg/ml), peptide addition −
[8] = Example 2-4, sample 10 μg/ml during CTL induction +, during expansion +
[9] = Example 2-6, sample during CTL induction −, during expansion + (10 μg/ml)
[10] = Example 1-4, sample 10 μg/ml during CTL induction +, during culture with IL-2 +, peptide addition +
[11] = Example 1-4, sample 10 μg/ml during CTL induction +, during culture with IL-2 +, peptide addition −
[12] = Example 1-5, sample during CTL induction −, during culture with IL-2 + (10 μg/ml), peptide addition +
[13] = Example 1-5, sample during CTL induction −, during culture with IL-2 + (10 μg/ml), peptide addition −
[14] = sample 10 μg/ml during CTL induction and during continuous culture, 10 to 14 days
[15] = sample 10 μg/ml only during continuous culture
[16] = Example 1-3, sample 10 μg/ml during CTL induction +, during culture with IL-2 +, peptide addition +
[17] = Example 1-3, sample 10 μg/ml during CTL induction +, during culture with IL-2 +, peptide addition −
[18] = Example 2-3, sample 10 μg/ml during CTL induction +, during expansion +, peptide addition +
[19] = Example 2-3, sample 10 μg/ml during CTL induction +, during expansion +, peptide addition −
[20] = Example 2-7, sample 10 μg/ml during CTL induction +, during expansion +, peptide addition +
[21] = Example 2-7, sample 10 μg/ml during CTL induction +, during expansion +, peptide addition −
[22] = Example 2-7, sample 10 μg/ml during CTL induction +, during expansion −, peptide addition +
[23] = Example 2-7, sample 10 μg/ml during CTL induction +, during expansion −, peptide addition −
[24] = Example 1-2, sample 10 μg/ml during CTL induction +, during culture with IL-2 +, peptide addition +
[25] = Example 1-2, sample 10 μg/ml during CTL induction +, during culture with IL-2 +, peptide addition −

sodium salt of sulfated fucose
Cytotoxic Activity (%) E/T Ratio 10 [1, 4]: 70.2% | Cytotoxic Activity (%) E/T Ratio 10 [1, 5]: 23.3% | Cytotoxic Activity (%) E/T Ratio 10 [1, 6]: 32.5% | Cytotoxic Activity (%) E/T Ratio 30 [1, 6]: 64.9% | Cytotoxic Activity (%) E/T Ratio 10 [1, 7]: 0% | Cytotoxic Activity (%) E/T Ratio 30 [1, 7]: 1.3% | Expansion Ratio [2, 8]: × 240 | Expansion Ratio [2, 9]: × 448 | Cytotoxic Activity (%) E/T Ratio 2.5 [3, 10]: 17.6% | Cytotoxic Activity (%) E/T Ratio 5 [3, 10]: 36.6% | Cytotoxic Activity (%) E/T Ratio 10 [3, 10]: 55.3% | Cytotoxic Activity (%) E/T Ratio 2.5 [3, 11]: 0% | Cytotoxic Activity (%) E/T Ratio 5 [3, 11]: 0% | Cytotoxic Activity (%) E/T Ratio 10 [3, 11]: 0.2% | Cytotoxic Activity (%) E/T Ratio 1 [3, 12]: 8.9% | Cytotoxic Activity (%) E/T Ratio 3 [3, 12]: 12.6% | Cytotoxic Activity (%) E/T Ratio 10 [3, 12]: 26.4% | Cytotoxic Activity (%) E/T Ratio 1 [3, 13]: 0% | Cytotoxic Activity (%) E/T Ratio 3 [3, 13]: 0.4% | Cytotoxic Activity (%) E/T Ratio 10 [3, 13]: 3.3% | cytotoxic activity after continuous culture (in words) [3, 14]: effects for maintaining cytotoxic activity | cytotoxic activity after continuous culture (in words) [3, 15]: maintaining an antigen-specific cytotoxic activity

pectic acid
Cytotoxic Activity (%) E/T Ratio 3 [1, 4]: 47.0% | Cytotoxic Activity (%) E/T Ratio 10 [1, 4]: 69.8% | Cytotoxic Activity (%) E/T Ratio 3 [1, 5]: 11.6% | Cytotoxic Activity (%) E/T Ratio 10 [1, 5]: 7.3% | Cytotoxic Activity (%) E/T Ratio 1 [1, 6]: 18.2% | Cytotoxic Activity (%) E/T Ratio 3 [1, 6]: 33.3% | Cytotoxic Activity (%) E/T Ratio 10 [1, 6]: 64.2% | Cytotoxic Activity (%) E/T Ratio 30 [1, 6]: 87.8% | Cytotoxic Activity (%) E/T Ratio 1 [1, 7]: 2.3% | Cytotoxic Activity (%) E/T Ratio 3 [1, 7]: 4.1% | Cytotoxic Activity (%) E/T Ratio 10 [1, 7]: 8.2% | Cytotoxic Activity (%) E/T Ratio 30 [1, 7]: 15.9% | Expansion Ratio [2, 8]: × 160 | Expansion Ratio [2, 9]: × 350 | Cytotoxic Activity (%) E/T Ratio 2.5 [3, 10]: 32.0% | Cytotoxic Activity (%) E/T Ratio 5 [3, 10]: 49.4% | Cytotoxic Activity (%) E/T Ratio 2.5 [3, 11]: 3.4% | Cytotoxic Activity (%) E/T Ratio 5 [3, 11]: 5.5% | Cytotoxic Activity (%) E/T Ratio 10 [3, 12]: 16.5% | Cytotoxic Activity (%) E/T Ratio 10 [3, 13]: 0% | cytotoxic activity after continuous culture (in words) [3, 14]: effects for maintaining cytotoxic activity | cytotoxic activity after continuous culture (in words) [3, 15]: maintaining an antigen-specific cytotoxic activity

swellable alginic acid
Cytotoxic Activity (%) E/T Ratio 3 [1, 4]: 65.0% | Cytotoxic Activity (%) E/T Ratio 10 [1, 4]: 101.6% | Cytotoxic Activity (%) E/T Ratio 3 [1, 5]: 14.3% | Cytotoxic Activity (%) E/T Ratio 10 [1, 5]: 21.3% | Cytotoxic Activity (%) E/T Ratio 1 [1, 6]: 15.4% | Cytotoxic Activity (%) E/T Ratio 3 [1, 6]: 22.0% | Cytotoxic Activity (%) E/T Ratio 10 [1, 6]: 47.8% | Cytotoxic Activity (%) E/T Ratio 30 [1, 6]: 81.7% | Cytotoxic Activity (%) E/T Ratio 1 [1, 7]: 0.1% | Cytotoxic Activity (%) E/T Ratio 3 [1, 7]: 0% | Cytotoxic Activity (%) E/T Ratio 10 [1, 7]: 2.1% | Cytotoxic Activity (%) E/T Ratio 30 [1, 7]: 10.6% | Expansion Ratio [2, 8]: × 176 | Expansion Ratio [2, 9]: × 378 | Cytotoxic Activity (%) E/T Ratio 1 [3, 16]: 39.8% | Cytotoxic Activity (%) E/T Ratio 3 [3, 16]: 75.3% | Cytotoxic Activity (%) E/T Ratio 10 [3, 16]: 86.9% | Cytotoxic Activity (%) E/T Ratio 1 [3, 17]: 12.5% | Cytotoxic Activity (%) E/T Ratio 3 [3, 17]: 26.5% | Cytotoxic Activity (%) E/T Ratio 10 [3, 17]: 22.2% | Cytotoxic Activity (%) E/T Ratio 1 [3, 12]: 12.6% | Cytotoxic Activity (%) E/T Ratio 3 [3, 12]: 18.7% | Cytotoxic Activity (%) E/T Ratio 10 [3, 12]: 35.6% | Cytotoxic Activity (%) E/T Ratio 1 [3, 13]: 3.3% | Cytotoxic Activity (%) E/T Ratio 3 [3, 13]: 1.3% | Cytotoxic Activity (%) E/T Ratio 10 [3, 13]: 8.8% | cytotoxic activity after continuous culture (in words) [3, 15]: maintaining an antigen-specific cytotoxic activity

sodium chondroitin sulfate B
Cytotoxic Activity (%) E/T Ratio 3 [1, 4]: 57.8% | Cytotoxic Activity (%) E/T Ratio 10 [1, 4]: 98.2% | Cytotoxic Activity (%) E/T Ratio 3 [1, 5]: 1.0% | Cytotoxic Activity (%) E/T Ratio 10 [1, 5]: 10.7% | Cytotoxic Activity (%) E/T Ratio 1 [1, 6]: 15.2% | Cytotoxic Activity (%) E/T Ratio 3 [1, 6]: 27.2% | Cytotoxic Activity (%) E/T Ratio 10 [1, 6]: 48.1% | Cytotoxic Activity (%) E/T Ratio 30 [1, 6]: 76.2% | Cytotoxic Activity (%) E/T Ratio 1 [1, 7]: 3.9% | Cytotoxic Activity (%) E/T Ratio 3 [1, 7]: 4.4% | Cytotoxic Activity (%) E/T Ratio 10 [1, 7]: 8.3% | Cytotoxic Activity (%) E/T Ratio 30 [1, 7]: 11.8% | Expansion Ratio [2, 8]: × 178 | Expansion Ratio [2, 9]: × 383 | Cytotoxic Activity (%) E/T Ratio 2.5 [3, 10]: 28.1% | Cytotoxic Activity (%) E/T Ratio 5 [3, 10]: 38.1% | Cytotoxic Activity (%) E/T Ratio 10 [3, 10]: 60.7% | Cytotoxic Activity (%) E/T Ratio 2.5 [3, 11]: 0% | Cytotoxic Activity (%) E/T Ratio 5 [3, 11]: 0% | Cytotoxic Activity (%) E/T Ratio 10 [3, 11]: 0.8% | Cytotoxic Activity (%) E/T Ratio 10 [3, 12]: 24.0% | Cytotoxic Activity (%) E/T Ratio 10 [3, 13]: 4.6% | cytotoxic activity after continuous culture (in words) [3, 14]: effects for maintaining cytotoxic activity | cytotoxic activity after continuous culture (in words) [3, 15]: maintaining an antigen-specific cytotoxic activity

CC1OC(OC2C(OC3C(OC4C(OS(=O)(=O)O)C(C)OC(O)C4OS(=O)(=O)O)OC(C)C(OS(=O)(=O)O)C3OC3OC(C)C(OS(=O)(=O)O)C(OS(=O)(=O)O)C3OS(=O)(=O)O)OC(C)C(OS(=O)(=O)O)C2OC2OC(C)C(OS(=O)(=O)O)C(OC3OC(C)C(OS(=O)(=O)O)C(O)C3OS(=O)(=O)O)C2OS(=O)(=O)O)C(O)C(OS(=O)(=O)O)C1O (stereo not drawn) [7-12SFd-F]
Cytotoxic Activity (%) E/T Ratio 3 [1, 18]: 67.0% | Cytotoxic Activity (%) E/T Ratio 10 [1, 18]: 93.7% | Cytotoxic Activity (%) E/T Ratio 3 [1, 19]: 2.8% | Cytotoxic Activity (%) E/T Ratio 10 [1, 19]: 0% | Cytotoxic Activity (%) E/T Ratio 1 [1, 6]: 14.1% | Cytotoxic Activity (%) E/T Ratio 3 [1, 6]: 20.1% | Cytotoxic Activity (%) E/T Ratio 10 [1, 6]: 41.7% | Cytotoxic Activity (%) E/T Ratio 30 [1, 6]: 64.6% | Cytotoxic Activity (%) E/T Ratio 1 [1, 7]: 2.7% | Cytotoxic Activity (%) E/T Ratio 3 [1, 7]: 0% | Cytotoxic Activity (%) E/T Ratio 10 [1, 7]: 1.0% | Cytotoxic Activity (%) E/T Ratio 30 [1, 7]: 3.5% | Cytotoxic Activity (%) E/T Ratio 1 [1, 20]: 9.4% | Cytotoxic Activity (%) E/T Ratio 3 [1, 20]: 23.4% | Cytotoxic Activity (%) E/T Ratio 10 [1, 20]: 44.2% | Cytotoxic Activity (%) E/T Ratio 30 [1, 20]: 82.1% | Cytotoxic Activity (%) E/T Ratio 1 [1, 21]: 0% | Cytotoxic Activity (%) E/T Ratio 3 [1, 21]: 0% | Cytotoxic Activity (%) E/T Ratio 10 [1, 21]: 0% | Cytotoxic Activity (%) E/T Ratio 30 [1, 21]: 1.6% | Cytotoxic Activity (%) E/T Ratio 1 [1, 22]: 14.0% | Cytotoxic Activity (%) E/T Ratio 3 [1, 22]: 34.6% | Cytotoxic Activity (%) E/T Ratio 10 [1, 22]: 50.4% | Cytotoxic Activity (%) E/T Ratio 30 [1, 22]: 83.5% | Cytotoxic Activity (%) E/T Ratio 1 [1, 23]: 6.7% | Cytotoxic Activity (%) E/T Ratio 3 [1, 23]: 6.5% | Cytotoxic Activity (%) E/T Ratio 10 [1, 23]: 9.3% | Cytotoxic Activity (%) E/T Ratio 30 [1, 23]: 9.8% | cytotoxic activity after expansion for 14 days (in words) ([1]; sample 10 μg/ml during CTL induction and during expansion, no EBV-B cells): maintained specific, high cytotoxic activity | Expansion Ratio ([2]; Example 2-3, sample 10 μg/ml during CTL induction +, during expansion +, 14 days): × 178 | Expansion Ratio [2, 9]: × 310 | Expansion Ratio ([2]; Example 2-7, sample 10 μg/ml during CTL induction +, during expansion +): × 258 | Expansion Ratio ([2]; Example 2-7, sample 10 μg/ml during CTL induction +, during expansion −): × 283 | Cytotoxic Activity (%) E/T Ratio 1 [3, 24]: 12.0% | Cytotoxic Activity (%) E/T Ratio 3 [3, 24]: 37.9% | Cytotoxic Activity (%) E/T Ratio 10 [3, 24]: 60.7% | Cytotoxic Activity (%) E/T Ratio 1 [3, 25]: 0.3% | Cytotoxic Activity (%) E/T Ratio 3 [3, 25]: 2.2% | Cytotoxic Activity (%) E/T Ratio 10 [3, 25]: 11.7% | cytotoxic activity after continuous culture (in words) [3, 14]: maintaining an antigen-specific cytotoxic activity

Source: patent US7816134B2, “Method of extensive culture of antigen-specific cytotoxic T cells” (Takara Bio Inc., priority 2000, dated 2010)
